Results: ChEMBL document CHEMBL4145540 (Eur J Med Chem, 2018)
pIC50: −log10 of the molar value. Activity calls are given as the source filed them. The rule behind the calls is not given here.

Assays:
[1] = test system: A549; experiment: Cell cycle arrest in human A549 cells assessed as accumulation at G0/G1 phase at 75 nM after 20 hrs by propidium iodide staining based flow cytometry (reference value: 66 +/- 1%); format: functional
[2] = species on record: Bos taurus; experiment: Inhibition of calf brain tubulin polymerization after 60 mins by turbidimetric method
[3] = test system: A549; experiment: Cell cycle arrest in human A549 cells assessed as accumulation at sub-G0 phase at 75 nM after 20 hrs by propidium iodide staining based flow cytometry (reference value: 6.6 +/- 0.1%); format: functional
[4] = test system: HeLa; experiment: Antiproliferative activity against human HeLa cells after 2 days by MTT assay; format: functional, cell-based; details: 48 h
[5] = test system: A549; experiment: Induction of apoptosis in human A549 cells at 100 nM after 24 hrs by Annexin V-FITC/propidium iodide staining based flow cytometry (reference value: 28%); format: functional
[6] = test system: HEK293; experiment: Antiproliferative activity against HEK293 cells after 2 days by MTT assay; format: cell-based; details: Homo sapiens, HEK293, 48 h
[7] = test system: A549; experiment: Disruption of microtubule network in human A549 cells assessed as appearance of compressed and fragmented nuclei at 300 nM after 16 hrs by Hoechst staining based immunofluorescence assay; format: cell-based
[8] = test system: A549; experiment: Cell cycle arrest in human A549 cells assessed as accumulation at S phase at 75 nM after 20 hrs by propidium iodide staining based flow cytometry (reference value: 16 +/- 1%); format: functional
[9] = test system: HT-29; experiment: Antiproliferative activity against human HT-29 cells after 2 days by MTT assay; format: functional, cell-based; details: HT-29, 48 h
[10] = test system: A549; experiment: Cell cycle arrest in human A549 cells assessed as accumulation at G2/M phase at 75 nM after 20 hrs by propidium iodide staining based flow cytometry (reference value: 11 +/- 1%); format: functional
[11] = test system: A549; experiment: Induction of apoptosis in human A549 cells after 24 hrs by Annexin V-FITC/propidium iodide staining based flow cytometry; format: functional, cell-based
[12] = test system: HMEC-1; experiment: Antiproliferative activity against HMEC1 cells after 2 days by MTT assay; format: functional, cell-based; details: Homo sapiens, HMEC-1, 48 h
[13] = test system: A549; experiment: Induction of apoptosis in human A549 cells at 10 nM after 24 hrs by Annexin V-FITC/propidium iodide staining based flow cytometry (reference value: 28%); format: functional
[14] = test system: MCF7; experiment: Antiproliferative activity against human MCF7 cells after 2 days by MTT assay; format: functional, cell-based; details: MCF7, 48 h
[15] = test system: HL-60; experiment: Antiproliferative activity against human HL60 cells after 2 days by MTT assay; format: functional, cell-based; details: HL-60, 48 h
[16] = test system: MDA-MB-231; experiment: Antiproliferative activity against human MDA-MB-231 cells after 3 days by coulter counting method; format: functional, cell-based; details: MDA-MB-231, 72 h
[17] = test system: A549; experiment: Antiproliferative activity against human A549 cells after 2 days by MTT assay; format: functional, cell-based; details: A549, 48 h
[18] = test system: A549; experiment: Disruption of microtubule network in human A549 cells assessed as appearance of tubulin aggregates at 300 nM after 16 hrs by Hoechst staining based immunofluorescence assay; format: cell-based
[19] = test system: A549; experiment: Disruption of microtubule network in human A549 cells assessed as appearance of tubulin aggregates at 200 nM after 16 hrs by Hoechst staining based immunofluorescence assay; format: cell-based
[20] = Selectivity index, ratio of IC50 for antiproliferative activity against HEK293 cells to IC50 for antiproliferative activity against human HL60 cells; format: toxicity, cell-based; details: HEK293 cells versus HL60 cells, read-out: Ratio IC50
[21] = test system: A549; experiment: Cell cycle arrest in human A549 cells assessed as accumulation at sub-G0 phase at 50 nM after 20 hrs by propidium iodide staining based flow cytometry (reference value: 6.6 +/- 0.1%); format: functional
[22] = test system: A549; experiment: Cell cycle arrest in human A549 cells assessed as accumulation at G2/M phase at 50 nM after 20 hrs by propidium iodide staining based flow cytometry (reference value: 11 +/- 1%); format: functional
[23] = Selectivity index, ratio of IC50 for antiproliferative activity against HEK293 cells to IC50 for antiproliferative activity against human HT-29 cells; format: toxicity, cell-based; details: HEK293 cells versus HT-29 cells, read-out: Ratio IC50
[24] = test system: A549; experiment: Disruption of microtubule network in human A549 cells assessed as appearance of compressed and fragmented nuclei at 200 nM after 16 hrs by Hoechst staining based immunofluorescence assay; format: cell-based
[25] = test system: A549; experiment: Cell cycle arrest in human A549 cells assessed as accumulation at G0/G1 phase at 50 nM after 20 hrs by propidium iodide staining based flow cytometry (reference value: 66 +/- 1%); format: functional
[26] = Selectivity index, ratio of IC50 for antiproliferative activity against HEK293 cells to IC50 for antiproliferative activity against human MCF7 cells; format: toxicity, cell-based; details: HEK293 cells versus MCF7 cells, read-out: Ratio IC50
[27] = Selectivity index, ratio of IC50 for antiproliferative activity against HEK293 cells to IC50 for antiproliferative activity against human HeLa cells; format: toxicity, cell-based; details: HEK293 cells versus HeLa cells, read-out: Ratio IC50
[28] = test system: A549; experiment: Cell cycle arrest in human A549 cells assessed as accumulation at S phase at 50 nM after 20 hrs by propidium iodide staining based flow cytometry (reference value: 16 +/- 1%); format: functional
[29] = test system: HMEC-1; experiment: Vascular disruptive activity in HMEC1 cells assessed as disruption of preformed tubular networks after 4 hrs by matrigel based assay; format: functional, cell-based; details: Homo sapiens
[30] = test system: A549; experiment: Cell cycle arrest in human A549 cells assessed as accumulation at G0/G1 phase at 60 nM after 20 hrs by propidium iodide staining based flow cytometry (reference value: 66 +/- 1%); format: functional
[31] = test system: A549; experiment: Disruption of microtubule network in human A549 cells assessed as appearance of compressed and fragmented nuclei at 230 nM after 16 hrs by Hoechst staining based immunofluorescence assay; format: cell-based
[32] = test system: A549; experiment: Cell cycle arrest in human A549 cells assessed as accumulation at sub-G0 phase at 60 nM after 20 hrs by propidium iodide staining based flow cytometry (reference value: 6.6 +/- 0.1%); format: functional
[33] = test system: A549; experiment: Cell cycle arrest in human A549 cells assessed as accumulation at S phase at 60 nM after 20 hrs by propidium iodide staining based flow cytometry (reference value: 16 +/- 1%); format: functional
[34] = test system: A549; experiment: Cell cycle arrest in human A549 cells assessed as accumulation at G2/M phase at 60 nM after 20 hrs by propidium iodide staining based flow cytometry (reference value: 11 +/- 1%); format: functional
[35] = test system: A549; experiment: Disruption of microtubule network in human A549 cells assessed as appearance of tubulin aggregates at 230 nM after 16 hrs by Hoechst staining based immunofluorescence assay; format: cell-based
[36] = species on record: Bos taurus; experiment: Inhibition of calf brain tubulin polymerization in glycerol-assembly buffer assessed as critical concentration for tubulin assembly at 27.5 uM measured every 30 secs for 2 hrs in presence of GTP
[37] = test system: A549; experiment: Cell cycle arrest in human A549 cells assessed as accumulation at S phase at 70 nM after 20 hrs by propidium iodide staining based flow cytometry (reference value: 16 +/- 1%); format: functional
[38] = test system: MDA-MB-231; experiment: Inhibition of EBI binding to beta-tubulin colchicine binding site in human MDA-MB-231 cells at 3 uM preincubated for 16 hrs followed by EBI addition and measured after 1.5 hrs by Western blot analysis; format: cell-based
[39] = test system: A549; experiment: Cell cycle arrest in human A549 cells assessed as accumulation at G2/M phase at 70 nM after 20 hrs by propidium iodide staining based flow cytometry (reference value: 11 +/- 1%); format: functional
[40] = test system: A549; experiment: Cell cycle arrest in human A549 cells assessed as accumulation at sub-G0 phase at 70 nM after 20 hrs by propidium iodide staining based flow cytometry (reference value: 6.6 +/- 0.1%); format: functional
[41] = test system: A549; experiment: Disruption of microtubule network in human A549 cells assessed as appearance of tubulin aggregates at 150 nM after 16 hrs by Hoechst staining based immunofluorescence assay; format: cell-based
[42] = test system: A549; experiment: Cell cycle arrest in human A549 cells assessed as accumulation at S phase at 40 nM after 20 hrs by propidium iodide staining based flow cytometry (reference value: 16 +/- 1%); format: functional
[43] = test system: A549; experiment: Cell cycle arrest in human A549 cells assessed as accumulation at G2/M phase at 40 nM after 20 hrs by propidium iodide staining based flow cytometry (reference value: 11 +/- 1%); format: functional
[44] = test system: A549; experiment: Disruption of microtubule network in human A549 cells assessed as appearance of compressed and fragmented nuclei at 150 nM after 16 hrs by Hoechst staining based immunofluorescence assay; format: cell-based
[45] = test system: A549; experiment: Cell cycle arrest in human A549 cells assessed as accumulation at G0/G1 phase at 40 nM after 20 hrs by propidium iodide staining based flow cytometry (reference value: 66 +/- 1%); format: functional
[46] = test system: A549; experiment: Cell cycle arrest in human A549 cells assessed as accumulation at sub-G0 phase at 40 nM after 20 hrs by propidium iodide staining based flow cytometry (reference value: 6.6 +/- 0.1%); format: functional

Structure (SMILES)	inhibition [2]	pIC50 [4]	Activity [5] [%]	pIC50 [6]	pIC50 [9]	Activity [11]	pIC50 [12]	Activity [13] [%]	pIC50 [14]	pIC50 [15]	pIC50 [16]	pIC50 [17]	Activity [21] [%]	Activity [22] [%]	Activity [25] [%]	Activity [28] [%]	Activity [29]	also measured
COc1ccc(/C=C\c2cc(OC)c(OC)c(OC)c2)cc1NC(=O)Oc1cccc(F)c1	Active	8.57	67	7.88	7.97	Dose-dependent effect	7.70	26	8.15	7.22	7.83	6.82	–	–	–	–	–	Activity [1]: 29%; Activity [3]: 19%; Activity [7]: Active; Activity [8]: 10%; Activity [10]: 43%; Activity [18]: Active
COc1ccc(/C=C\c2cc(OC)c(OC)c(OC)c2)cc1NC(=O)Oc1cccc(Cl)c1	Active	8.32	93	7.84	8.04	Dose-dependent effect	8.05	29	8.36	7.87	7.82	7.00	16	44	30	10	–	Activity [19]: Active; selectivity ratio [20]: 2 to 11; selectivity ratio [23]: 2 to 11; Activity [24]: Active; selectivity ratio [26]: 2 to 11; selectivity ratio [27]: 2 to 11
COc1ccc(/C=C\c2cc(OC)c(OC)c(OC)c2)cc1N	Active	8.59	62	8.15	7.66	Dose-dependent effect	7.92	56	8.10	8.35	7.92	6.93	–	–	–	–	Dose-dependent effect	Activity [30]: 21%; Activity [31]: Active; Activity [32]: 14%; Activity [33]: 24%; Activity [34]: 41%; Activity [35]: Active
COc1ccc(/C=C\c2cc(OC)c(OC)c(OC)c2)cc1O [COMBRETASTATIN A4]	Active	5.68	–	–	–	–	5.47	–	–	5.40	–	6.89	15	43	21	22	–	Activity [36]: 22 µM
COc1ccc(/C=C\c2cc(OC)c(OC)c(OC)c2)cc1NC(=O)Oc1ccc(Cl)c(C)c1	Active	8.48	90	8.08	7.94	Dose-dependent effect	8.15	41	8.09	9.40	8.40	6.85	–	–	–	–	Dose-dependent effect	Activity [37]: 22%; inhibition [38]: Active; Activity [39]: 36%; Activity [40]: 18%
COc1ccc(/C=C\c2cc(OC)c(OC)c(OC)c2)cc1NC(=O)Oc1ccccc1	–	8.32	91	8.48	8.54	Dose-dependent effect	7.92	45	8.01	8.40	7.93	7.11	–	–	–	–	–	Activity [41]: Active; Activity [42]: 15%; Activity [43]: 44%; Activity [44]: Active; Activity [45]: 21%; Activity [46]: 20%
